For this test, the system named is L1210 leukemia ip in BDF1 mice, survival T/C. Nature of the test: NCI In Vivo Anticancer Drug Screen. Data for tumor model L1210 Leukemia (intraperitoneal) in B6D2F1 (BDF1) mice. The following applies: endpoint: mean survival time, higher = longer survival. In outline:
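Tumor cells were implanted, animals were treated, and survival was followed. The result divides the treated measurement by the vehicle-control measurement.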

The mark [1] stands for this setting: dose: 100.0 mg/kg/injection, schedule: Q01DX009 (ip), vehicle: saline.
Where [2] appears, read: dose: 100.0 mg/kg/injection, schedule: Q01DX009 (ip), vehicle: saline with Tween-80.
Setting [3] is: dose: 100.0 mg/kg/injection, schedule: Q04DX003 (ip), vehicle: saline with Tween-80.
[4] abbreviates: dose: 200.0 mg/kg/injection, schedule: Q04DX003 (ip), vehicle: saline with Tween-80.
Setting [5] is: dose: 400.0 mg/kg/injection, schedule: Q01DX009 (ip), vehicle: saline with Tween-80.
Setting [6] is: dose: 400.0 mg/kg/injection, schedule: Q04DX003 (ip), vehicle: saline with Tween-80.
Where [7] appears, read: dose: 200.0 mg/kg/injection, schedule: Q01DX009 (ip), vehicle: saline with Tween-80.
Where [8] appears, read: dose: 100.0 mg/kg/injection, schedule: Q01DX001 (ip), vehicle: saline.
Where [9] appears, read: dose: 200.0 mg/kg/injection, schedule: Q01DX001 (ip), vehicle: saline.
Setting [10] is: dose: 400.0 mg/kg/injection, schedule: Q01DX001 (ip), vehicle: saline.

Molecules are shown by their SMILES. Where “and” joins values, the source holds several entries; their conditions need not be identical. Equal values may be shown once. Inconclusive results and toxic doses are left out.

With `CCCCn1cnc2c(=S)nc[nH]c21`, the T/C is 98 % of control (dose: 5.0 mg/kg/injection, schedule: Q01DX Z (ip), vehicle: carboxymethylcellulose (CMC)); 103 % of control (dose: 8.0 mg/kg/injection, schedule: Q01DX Z (ip), vehicle: carboxymethylcellulose (CMC)); 102 % of control (dose: 10.0 mg/kg/injection, schedule: Q01DX Z (ip), vehicle: carboxymethylcellulose (CMC)); 103 % of control (dose: 16.0 mg/kg/injection, schedule: Q01DX Z (ip), vehicle: carboxymethylcellulose (CMC)); 94 % of control (dose: 16.0 mg/kg/injection, schedule: Q01DX Z (ip), vehicle: saline); 109 % of control (dose: 16.0 mg/kg/injection, schedule: Q01DX Z (oral), vehicle: carboxymethylcellulose (CMC)). Also, the T/C (dose: 20.0 mg/kg/injection, schedule: Q01DX Z (ip), vehicle: carboxymethylcellulose (CMC)) is 104 % of control; the T/C (dose: 32.0 mg/kg/injection, schedule: Q01DX009 (ip), vehicle: saline) is 101 % of control; the T/C (dose: 32.0 mg/kg/injection, schedule: Q01DX Z (ip), vehicle: carboxymethylcellulose (CMC)) is 120 % of control; the T/C (dose: 32.0 mg/kg/injection, schedule: Q01DX Z (ip), vehicle: saline) is 97 % of control; the T/C (dose: 32.0 mg/kg/injection, schedule: Q01DX Z (oral), vehicle: carboxymethylcellulose (CMC)) was 112 % of control; the T/C (dose: 40.0 mg/kg/injection, schedule: Q01DX Z (ip), vehicle: carboxymethylcellulose (CMC)) is 112 % of control. In addition, the T/C is, setting by setting: (dose: 64.0 mg/kg/injection, schedule: Q01DX009 (ip), vehicle: saline) 115 % of control and 121 % of control; (dose: 64.0 mg/kg/injection, schedule: Q01DX Z (ip), vehicle: saline) 123 % of control; (dose: 64.0 mg/kg/injection, schedule: Q01DX Z (oral), vehicle: carboxymethylcellulose (CMC)) 117 % of control; (dose: 86.0 mg/kg/injection, schedule: Q02DX010 (ip), vehicle: carboxymethylcellulose (CMC)) 117 % of control; (dose: 88.0 mg/kg/injection, schedule: Q02DX010 (ip), vehicle: carboxymethylcellulose (CMC)) 116 % of control; (dose: 100.0 mg/kg/injection, schedule: Q01DX015 (ip), vehicle: carboxymethylcellulose (CMC)) 178 % of control. Further, the T/C is 152 % of control (dose: 160.0 mg/kg/injection, schedule: Q01DX015 (ip), vehicle: carboxymethylcellulose (CMC)); 124 % of control (dose: 225.0 mg/kg/injection, schedule: Q01DX015 (ip), vehicle: carboxymethylcellulose (CMC)); 116 % of control (dose: 240.0 mg/kg/injection, schedule: Q01DX015 (ip), vehicle: carboxymethylcellulose (CMC)); 121 % of control (dose: 256.0 mg/kg/injection, schedule: Q01DX009 (ip), vehicle: saline); 100 % of control (dose: 256.0 mg/kg/injection, schedule: Q01DX Z (ip), vehicle: saline); 92 % of control (dose: 320.0 mg/kg/injection, schedule: Q01DX015 (ip), vehicle: carboxymethylcellulose (CMC)). Moreover, the T/C (dose: 335.0 mg/kg/injection, schedule: Q01DX015 (ip), vehicle: carboxymethylcellulose (CMC)) was 98 % of control.

Take `CCC(C)C(C(=O)OC1CCN(C)CC1)c1ccccc1` (stereo not given): the T/C is 102 % of control (dose: 25.0 mg/kg/injection, schedule: Q04DX003 (ip), vehicle: saline); 105 % of control (dose: 50.0 mg/kg/injection, schedule: Q01DX009 (ip), vehicle: saline); 96 % of control (dose: 50.0 mg/kg/injection, schedule: Q04DX003 (ip), vehicle: saline); 98 % of control under setting [1]; 97 % of control and 108 % of control (dose: 100.0 mg/kg/injection, schedule: Q04DX003 (ip), vehicle: saline).

On to `O=C(O)C1CC1C(=O)c1ccccc1` (stereo not given), for which the T/C is, setting by setting: (dose: 25.0 mg/kg/injection, schedule: Q01DX001 (ip), vehicle: Klucel (hydroxypropylcellulose) (HPC)) 98 % of control; (dose: 50.0 mg/kg/injection, schedule: Q01DX001 (ip), vehicle: Klucel (hydroxypropylcellulose) (HPC)) 97 % of control; (dose: 100.0 mg/kg/injection, schedule: Q01DX001 (ip), vehicle: Klucel (hydroxypropylcellulose) (HPC)) 96 % of control and 98 % of control; (dose: 200.0 mg/kg/injection, schedule: Q01DX001 (ip), vehicle: Klucel (hydroxypropylcellulose) (HPC)) 86 % of control; (dose: 400.0 mg/kg/injection, schedule: Q01DX001 (ip), vehicle: Klucel (hydroxypropylcellulose) (HPC)) 103 % of control.

Regarding `C(=N\Nc1nn[nH]n1)/c1ccncc1`, the T/C was 98 % of control under setting [2]; 95 % of control under setting [3]; 102 % of control (dose: 132.0 mg/kg/injection, schedule: Q01DX009 (ip), vehicle: saline with Tween-80); 96 % of control under setting [4]; 97 % of control (dose: 300.0 mg/kg/injection, schedule: Q01DX009 (ip), vehicle: saline with Tween-80); 100 % of control under setting [5]. Further, under setting [6], the T/C was 90 % of control.

Regarding `CCCCOB=O`, the T/C is, setting by setting: under setting [2], 96 % of control; under setting [7], 106 % of control; under setting [5], 98 % of control.

In the case of `CCCCNC(=S)S`, the T/C (dose: 100.0 mg/kg/injection, schedule: Q04DX003 (ip), vehicle: Klucel (hydroxypropylcellulose) (HPC)) is 95 % of control; the T/C (dose: 200.0 mg/kg/injection, schedule: Q04DX003 (ip), vehicle: Klucel (hydroxypropylcellulose) (HPC)) was 98 % of control; the T/C (dose: 400.0 mg/kg/injection, schedule: Q04DX003 (ip), vehicle: Klucel (hydroxypropylcellulose) (HPC)) is 104 % of control.

On to `Nc1ccn(CCCOc2ccccc2)c(=O)n1`, for which the T/C is, setting by setting: (dose: 100.0 mg/kg/injection, schedule: Q01DX001 (ip), vehicle: saline with Tween-80) 97 % of control; (dose: 200.0 mg/kg/injection, schedule: Q01DX001 (ip), vehicle: saline with Tween-80) 96 % of control; (dose: 400.0 mg/kg/injection, schedule: Q01DX001 (ip), vehicle: saline with Tween-80) 100 % of control.

Regarding `Oc1ccccc1C=Nc1ccc(N=Cc2ccccc2O)cc1`, the T/C under setting [8] was 101 % of control, the T/C under setting [9] was 95 % of control and the T/C under setting [10] is 106 % of control.

Consider `N#CC1c2ccccc2C=CN1C(=O)CCBr` (stereo not given), for which the T/C runs as follows: under setting [2], 112 % of control; under setting [7], 102 % of control; under setting [5], 96 % of control.

As to `CCOC(=O)CCC(=O)C(=O)OCC`, the T/C is, setting by setting: under setting [8], 92 % of control; under setting [9], 102 % of control; under setting [10], 92 % of control.

Consider `O=S(=O)(/C=C/c1ccc(-c2ccccc2)cc1)c1ccccc1`, for which the T/C was 101 % of control (dose: 100.0 mg/kg/injection, schedule: Q01DX001 (ip), vehicle: acetone); 94 % of control under setting [1]; 108 % of control (dose: 100.0 mg/kg/injection, schedule: Q04DX003 (ip), vehicle: acetone); 89 % of control (dose: 200.0 mg/kg/injection, schedule: Q01DX001 (ip), vehicle: acetone); 96 % of control (dose: 200.0 mg/kg/injection, schedule: Q01DX009 (ip), vehicle: saline); 96 % of control (dose: 200.0 mg/kg/injection, schedule: Q04DX003 (ip), vehicle: acetone). Also, the T/C reads like this: (dose: 400.0 mg/kg/injection, schedule: Q01DX001 (ip), vehicle: acetone) 98 % of control; (dose: 400.0 mg/kg/injection, schedule: Q01DX009 (ip), vehicle: saline) 96 % of control; (dose: 400.0 mg/kg/injection, schedule: Q04DX003 (ip), vehicle: acetone) 96 % of control.

In the case of `Cc1ccc(S(=O)(=O)NN)cc1`, the T/C is 97 % of control under setting [3], 101 % of control under setting [4] and 88 % of control under setting [6].

On to `O=C(NCCCCCCNC(=O)Nc1cccc2ccccc12)Nc1cccc2ccccc12`, for which the T/C reads like this: (dose: 100.0 mg/kg/injection, schedule: Q01DX009 (ip), vehicle: Klucel (hydroxypropylcellulose) (HPC)) 97 % of control; (dose: 200.0 mg/kg/injection, schedule: Q01DX009 (ip), vehicle: Klucel (hydroxypropylcellulose) (HPC)) 103 % of control; (dose: 400.0 mg/kg/injection, schedule: Q01DX009 (ip), vehicle: Klucel (hydroxypropylcellulose) (HPC)) 92 % of control.

The values above are taken from PubChem BioAssay AID248 (DTP/NCI, 2004).
